Measured values as given in publication PMC5614982, “Impact of Gastric H^+/K^+-ATPase rs2733743 on the Intragastric pH-Values of Dexlansoprazole Injection in Chinese Subjects” (Frontiers in Pharmacology, 2017).
Marks after values point to notes of the source that are not given here.

System: intragastric pH
Assay: 24-h intragastric pH monitoring after single intravenous dexlansoprazole in healthy Chinese subjects
Assay type: in vivo, human
Settings: 30 mg iv
Experimental: Dexlansoprazole injection (30 mg per vial) used in the PK and PD study was manufactured by Nanjing Yoko Pharma Co., Ltd. (Nanjing, China). Subjects received an intravenous infusion of 20 or 30 mg dexlansoprazole injection in sterile saline solution (100 mL/h, 60 min). The study drug was administrated with an infusing pump (SA213, Lifepum, Beijing, China) and given through an intravenous catheter in the antecubital vein opposite to the one from which blood samples were taken.
An ambulatory pH recorder (Orion II, MMS, USA) with a disposable pH catheter (VersaFlex, MMS, USA) was used to monitor intragastric pH. The electrode was placed in water for at least 10 min and then calibrated using standard buffer solutions (pH 1.07 and 7.01) before intubation. Both calibration and intubation processes were conducted under the guidance of MMS Virtual Instructor Program. The catheter, trans nasally placed 10 cm under the lower esophageal sphincter, was identified by a sharp decrease in pH (Wang et al., [2010], [2011]). Subjects were intubated on baseline and the day of dosing at about 7:30 a.m., and the intragastric pH data were recorded continuously for 24 h from 8:00 a.m. Intragastric pH was sampled every second, and the data were stored in a MMS Database program (MMS, USA). The PD parameters including Median (pH), Mean (pH), TpH≥3 (%), TpH≥4 (%), TpH≥6 (%), TpH≥6, and AUC^pH−t were analyzed by the MMS Database program.
Median (pH) and mean (pH) were well-investigated in most studies, and the percentage time of pH ≥ 4 (or pH ≥ 4 holding time ratio) was the benchmark for predicting clinical efficacy of PPIs in treating acid-related diseases (Metz et al., [2009]). Novel parameter TpH≥6 (time to first gastric pH ≥ 6, min) and AUCτ 1-τ 2pH-t (area under pH-time curve from τ1 to τ2, pH·s) were defined to evaluate the velocity and extent of pharmacodynamics with more accuracy. All parameters were calculated and compared according to time periods of 0–24, 0–4, 4–10, 10–14, and 14–24 h post dosing.
The parameter AUCτ 1-τ 2pH-t was calculated as follows:
Where t represented the time duration measured by seconds, AUCτ 1-τ 210-t was the area between the pH line = 10 and the pH-time curve, which was generated by the MMS software.
Baseline-adjusted PD parameters were calculated as follows: for example, ΔAUC^pH−t = AUC^pH−t − AUC^pH−tbaseline, ΔMean (pH) = Mean (pH) − Mean (pH)^baseline, and ΔMedian (pH) = Median (pH) − Median (pH)^baseline.

[1] = CYP2C19 EMs, H+/K+-ATPase WT (n = 6), 0–4 h
[2] = CYP2C19 EMs, H+/K+-ATPase WT (n = 6), 0–24 h
[3] = CYP2C19 EMs, H+/K+-ATPase WT (n = 6), 14–24 h
[4] = H+/K+-ATPase Het (n = 10), 0–4 h

Cc1c(OCC(F)(F)F)ccnc1C[S@@+]([O-])c1nc2ccccc2[nH]1 [dexlansoprazole]
Mean (pH) [1]: 6.1 ± 0.5 pH
Median (pH) [1]: 6.9 ± 0.5 pH
TpH≥3(%) [1]: 80.8 ± 8.4%
TpH≥4(%) [1]: 76.4 ± 9.4%
TpH≥6(%) [1]: 66.9 ± 14.8%
ΔMean (pH) [1]: 3.4 ± 0.7 pH
ΔMedian (pH) [1]: 4.5 ± 0.7^b pH
ΔTpH≥3(%) [1]: 51.7 ± 34.6%
ΔTpH≥4 (%) [1]: 58.6 ± 15.0%
ΔTpH≥6(%) [1]: 60.9 ± 12.6%
Mean (pH) [2]: 5.6 ± 1.1 pH
Median (pH) [2]: 5.8 ± 1.4 pH
TpH≥3(%) [2]: 79.8 ± 16.2%
TpH≥4(%) [2]: 73.1 ± 20.0%
TpH≥6(%) [2]: 53.5 ± 23.6%
ΔMean (pH) [2]: 2.4 ± 0.8^c pH
ΔMedian (pH) [2]: 3.2 ± 1.0 pH
ΔTpH≥3(%) [2]: 35.3 ± 10.3^c %
ΔTpH≥4 (%) [2]: 41.0 ± 16.6^c %
ΔTpH≥6(%) [2]: 43.2 ± 18.2%
Mean (pH) [3]: 4.8 ± 1.8 pH
Median (pH) [3]: 4.3 ± 1.7 pH
TpH≥3(%) [3]: 62.4 ± 35.6%
TpH≥4(%) [3]: 52.1 ± 41.3%
TpH≥6(%) [3]: 34.4 ± 28.0%
ΔMean (pH) [3]: 1.6 ± 0.9^c pH
ΔMedian (pH) [3]: 2.3 ± 1.7 pH
ΔTpH≥3(%) [3]: 38.5 ± 26.5^c %
ΔTpH≥4 (%) [3]: 29.5 ± 29.9%
ΔTpH≥6(%) [3]: 14.1 ± 12.6^c %
Mean (pH) (CYP2C19 IM (n = 10), 0–4 h): 5.6 ± 2.2 pH
Median (pH) (CYP2C19 IM (n = 10), 0–4 h): 6.2 ± 2.8 pH
TpH≥3(%) (CYP2C19 IM (n = 10), 0–4 h): 66.9 ± 33.4%
TpH≥4(%) (CYP2C19 IM (n = 10), 0–4 h): 63.6 ± 36.2%
TpH≥6(%) (CYP2C19 IM (n = 10), 0–4 h): 56.6 ± 36.6%
ΔMean (pH) (CYP2C19 IM (n = 10), 0–4 h): 3.3 ± 1.7 pH
ΔMedian (pH) (CYP2C19 IM (n = 10), 0–4 h): 4.3 ± 2.5 pH
ΔTpH≥3(%) (CYP2C19 IM (n = 10), 0–4 h): 56.9 ± 27.1%
ΔTpH≥4 (%) (CYP2C19 IM (n = 10), 0–4 h): 56.2 ± 31.5%
ΔTpH≥6(%) (CYP2C19 IM (n = 10), 0–4 h): 51.3 ± 33.5%
Mean (pH) (CYP2C19 IM (n = 10), 0–24 h): 6.6 ± 0.9 pH
Median (pH) (CYP2C19 IM (n = 10), 0–24 h): 7.0 ± 0.8 pH
TpH≥3(%) (CYP2C19 IM (n = 10), 0–24 h): 89.6 ± 9.2%
TpH≥4(%) (CYP2C19 IM (n = 10), 0–24 h): 85.7 ± 10.6%
TpH≥6(%) (CYP2C19 IM (n = 10), 0–24 h): 67.8 ± 13.4%
ΔMean (pH) (CYP2C19 IM (n = 10), 0–24 h): 3.7 ± 0.6 pH
ΔMedian (pH) (CYP2C19 IM (n = 10), 0–24 h): 4.9 ± 0.8 pH
ΔTpH≥3(%) (CYP2C19 IM (n = 10), 0–24 h): 65.3 ± 6.2%
ΔTpH≥4 (%) (CYP2C19 IM (n = 10), 0–24 h): 70.0 ± 8.3%
ΔTpH≥6(%) (CYP2C19 IM (n = 10), 0–24 h): 56.7 ± 6.4%
Mean (pH) (CYP2C19 IM (n = 10), 14–24 h): 6.1 ± 0.9 pH
Median (pH) (CYP2C19 IM (n = 10), 14–24 h): 6.2 ± 1.2 pH
TpH≥3(%) (CYP2C19 IM (n = 10), 14–24 h): 88.9 ± 8.9%
TpH≥4(%) (CYP2C19 IM (n = 10), 14–24 h): 80.9 ± 12.6%
TpH≥6(%) (CYP2C19 IM (n = 10), 14–24 h): 50.7 ± 13.6%
ΔMean (pH) (CYP2C19 IM (n = 10), 14–24 h): 2.7 ± 0.9 pH
ΔMedian (pH) (CYP2C19 IM (n = 10), 14–24 h): 3.7 ± 0.9 pH
ΔTpH≥3(%) (CYP2C19 IM (n = 10), 14–24 h): 60.8 ± 19.5%
ΔTpH≥4 (%) (CYP2C19 IM (n = 10), 14–24 h): 55.6 ± 17.3%
ΔTpH≥6(%) (CYP2C19 IM (n = 10), 14–24 h): 27.8 ± 14.7^c %
Mean (pH) (CYP2C19 PM (n = 7), 0–4 h): 5.2 ± 1.1 pH
Median (pH) (CYP2C19 PM (n = 7), 0–4 h): 5.9 ± 1.8 pH
TpH≥3(%) (CYP2C19 PM (n = 7), 0–4 h): 73.7 ± 10.5%
TpH≥4(%) (CYP2C19 PM (n = 7), 0–4 h): 64.8 ± 15.2%
TpH≥6(%) (CYP2C19 PM (n = 7), 0–4 h): 47.7 ± 24.1%
ΔMean (pH) (CYP2C19 PM (n = 7), 0–4 h): 3.5 ± 0.9 pH
ΔMedian (pH) (CYP2C19 PM (n = 7), 0–4 h): 4.2 ± 1.8 pH
ΔTpH≥3(%) (CYP2C19 PM (n = 7), 0–4 h): 69.8 ± 9.5%
ΔTpH≥4 (%) (CYP2C19 PM (n = 7), 0–4 h): 63.2 ± 13.7%
ΔTpH≥6(%) (CYP2C19 PM (n = 7), 0–4 h): 47.3 ± 23.7%
Mean (pH) (CYP2C19 PM (n = 7), 0–24 h): 6.5 ± 1.1 pH
Median (pH) (CYP2C19 PM (n = 7), 0–24 h): 6.7 ± 1.2 pH
TpH≥3(%) (CYP2C19 PM (n = 7), 0–24 h): 89.0 ± 13.3%
TpH≥4(%) (CYP2C19 PM (n = 7), 0–24 h): 85.0 ± 16.4%
TpH≥6(%) (CYP2C19 PM (n = 7), 0–24 h): 72.2 ± 19.8%
ΔMean (pH) (CYP2C19 PM (n = 7), 0–24 h): 4.1 ± 1.1^a pH
ΔMedian (pH) (CYP2C19 PM (n = 7), 0–24 h): 4.8 ± 1.2 pH
ΔTpH≥3(%) (CYP2C19 PM (n = 7), 0–24 h): 68.6 ± 15.3^a %
ΔTpH≥4 (%) (CYP2C19 PM (n = 7), 0–24 h): 74.6 ± 16.6^a %
ΔTpH≥6(%) (CYP2C19 PM (n = 7), 0–24 h): 68.8 ± 17.9^a %
Mean (pH) (CYP2C19 PM (n = 7), 14–24 h): 6.1 ± 1.4 pH
Median (pH) (CYP2C19 PM (n = 7), 14–24 h): 5.9 ± 2.0 pH
TpH≥3(%) (CYP2C19 PM (n = 7), 14–24 h): 87.3 ± 22.7%
TpH≥4(%) (CYP2C19 PM (n = 7), 14–24 h): 82.9 ± 26.0%
TpH≥6(%) (CYP2C19 PM (n = 7), 14–24 h): 64.4 ± 25.6^a %
ΔMean (pH) (CYP2C19 PM (n = 7), 14–24 h): 3.8 ± 1.3^a pH
ΔMedian (pH) (CYP2C19 PM (n = 7), 14–24 h): 4.1 ± 1.9^a pH
ΔTpH≥3(%) (CYP2C19 PM (n = 7), 14–24 h): 76.9 ± 20.0^a %
ΔTpH≥4 (%) (CYP2C19 PM (n = 7), 14–24 h): 75.9 ± 22.4^a %
ΔTpH≥6(%) (CYP2C19 PM (n = 7), 14–24 h): 59.0 ± 24.6^a^,^b %
Mean (pH) [4]: 5.3 ± 2.0 pH
Median (pH) [4]: 5.5 ± 2.5 pH
TpH≥3(%) [4]: 70.6 ± 25.1%
TpH≥4(%) [4]: 64.8 ± 28.6%
TpH≥6(%) [4]: 50.5 ± 38.4%
ΔMean (pH) [4]: 3.0 ± 1.2 pH
